Experiments:
[1] = Metabolism in vitro of MPTDI, human hepatic microsomes (HPLC-MS profile); format: in vitro ADME; details: incubation of MPTDI with human hepatic microsomes
Description: (§1) The profile and the identification of the metabolites of MPTDI were obtained after incubation of the product with human hepatic microsomes. The results were compared with those obtained on rat hepatic microsomes. The metabolic profiles obtained by HPLC coupled to a mass spectrometer in these two species are represented in FIG. 1. In some cases, the mass spectra obtained were compared with those of reference substances synthesized by the chemical route. It is deduced therefrom that the profiles obtained on human and rat microsomes are similar: Table 1 collates the measured proportions of the metabolites for these two species.

[2] = Metabolism in vitro of MPTDI, rat hepatic microsomes (HPLC-MS profile); format: in vitro ADME; details: incubation of MPTDI with rat hepatic microsomes
Description: as §1

| SMILES | Proportions (%) of the metabolites obtained on human hepatic microsomes [1] | Proportions (%) of the metabolites obtained on rat hepatic microsomes [2] | melting point |
| --- | --- | --- | --- |
| Cc1cc2c3c(c1)C(c1ccccc1)=N[C@@H](NC(=O)c1ccncc1)C(=O)N3CC2 [MPTDI, (3R)-N-(9-methyl-4-oxo-1-phenyl-3,4,6,7-tetrahydro[1,4]diazepino[6,7,1-hi]indol-3-yl)isonicotinamide, reference compound] | 79% | 38.2% | – |
| O=C(NC1N=C(c2ccccc2)c2cc(CO)cc3c2N(CC3)C1=O)c1ccncc1 (centres unmarked) [OH on 9-CH3, N-(9-hydroxymethyl-4-oxo-1-phenyl-3,4,6,7-tetrahydro[1,4]diazepino[6,7,1-hi]indol-3-yl)isonicotinamide] | 4.2% | 24.3% | 260 °C |

Reference: patent US6365585B1, “Phosphodiesterase IV-inhibiting diazepinoindoles” (Warner-Lambert Company, priority 1998, dated 2002)
